Laboratory results: patent US8557847B2, “Synergistic modulation of FLT3 kinase using a FLT3 inhibitor and a farnesyl transferase inhibitor” (Janssen Pharmaceutica, N.V., priority 2005, dated 2013)
Structures can show the parent of a compound that is named as a salt.

tested on: MV4-11 cells; experiment: Inhibition of MV4-11 cell proliferation (CellTiterGlo); format: cell-based; details: Homo sapiens, 72 hours growth, uncertainty ±20%
Method: To assess the cellular potency of compounds of the present invention, FLT3 specific growth inhibition was measured in the leukemic cell line MV4-11 (ATCC Number: CRL-9591). […] MV4-11 cells cannot grow and survive without active FLT3ITD.
To measure proliferation inhibition by compounds of the present invention, the luciferase based CellTiterGlo reagent (Promega), which quantifies total cell number based on total cellular ATP concentration, was used. Cells are plated at 10,000 cells per well in 100 ul of in RPMI media containing penn/strep, 10% FBS and 1 ng/ml GM-CSF or 1 ng/ml IL-3 for MV4-11 and Baf3 cells respectively.
Compound dilutions or 0.1% DMSO (vehicle control) are added to cells and the cells are allowed to grow for 72 hours at standard cell growth conditions (37° C., 5% CO2). For activity measurements in MV4-11 cells grown in 50% plasma, cells were plated at 10,000 cells per well in a 1:1 mixture of growth media and human plasma (final volume of 100 μL). To measure total cell growth an equal volume of CellTiterGlo reagent was added to each well, according to the manufacturer's instructions, and luminescence was quantified. Total cell growth was quantified as the difference in luminescent counts (relative light units, RLU) of cell number at Day 0 compared to total cell number at Day 3 (72 hours of growth and/or compound treatment). One hundred percent inhibition of growth is defined as an RLU equivalent to the Day 0 reading. Zero percent inhibition was defined as the RLU signal for the DMSO vehicle control at Day 3 of growth.
Data points are an average of triplicate samples. […] Inhibition and IC50 data analysis was done with GraphPad Prism using a non-linear regression fit with a multiparamater, sigmoidal dose-response (variable slope) equation. MV4-11 cells express the FLT3 internal tandem duplication mutation, and thus are entirely dependent upon FLT3 activity for growth. […] In contrast, the Baf3 cell proliferation is driven by the cytokine IL-3 and thus is used as a non-specific toxicity control.

In order of falling IC50:
1. N#Cc1c[nH]c(C(=O)Nc2ccc(C3CCNCC3)cc2C2=CCS(=O)(=O)CC2)n1 [Compound 36, 4-Cyano-1H-imidazole-2-carboxylic acid [2-(1,1-dioxo-1,2,3,6-tetrahydro-1λ6-thiopyran-4-yl)-4-piperidin-4-yl-phenyl]-amide trifluoroacetic acid salt]  192 nM
2. CS(=O)(=O)CCN1CCC(c2ccc(NC(=O)c3nc(C#N)c[nH]3)c(C3=CCCCC3)c2)CC1 [Compound 40, 4-Cyano-1H-imidazole-2-carboxylic acid {2-cyclohex-1-enyl-4-[1-(2-methanesulfonyl-ethyl)-piperidin-4-yl]-phenyl}-amide]  116 nM
3. N#Cc1c[nH]c(C(=O)Nc2ccc(C3CCN(CCN4CCOCC4)CC3)cc2C2=CCCCC2)n1 [Compound 34, 4-Cyano-1H-imidazole-2-carboxylic acid {2-cyclohex-1-enyl-4-[1-(2-morpholin-4-yl-ethyl)-piperidin-4-yl]-phenyl}-amide di-trifluoroacetic acid salt]  8 nM

molecular target: T1, isolated kinase domain of the human FLT3 receptor (a.a. 571-993) (Homo sapiens, UniProt P36888); experiment: FLT3 fluorescence polarization kinase assay; format: biochemical; details: 150 uM ATP; uncertainty ±10%; read-out: Flt-3 IC50
T1 construct: human FLT3 receptor (a.a. 571-993)
T1 sequence (P36888 571-993): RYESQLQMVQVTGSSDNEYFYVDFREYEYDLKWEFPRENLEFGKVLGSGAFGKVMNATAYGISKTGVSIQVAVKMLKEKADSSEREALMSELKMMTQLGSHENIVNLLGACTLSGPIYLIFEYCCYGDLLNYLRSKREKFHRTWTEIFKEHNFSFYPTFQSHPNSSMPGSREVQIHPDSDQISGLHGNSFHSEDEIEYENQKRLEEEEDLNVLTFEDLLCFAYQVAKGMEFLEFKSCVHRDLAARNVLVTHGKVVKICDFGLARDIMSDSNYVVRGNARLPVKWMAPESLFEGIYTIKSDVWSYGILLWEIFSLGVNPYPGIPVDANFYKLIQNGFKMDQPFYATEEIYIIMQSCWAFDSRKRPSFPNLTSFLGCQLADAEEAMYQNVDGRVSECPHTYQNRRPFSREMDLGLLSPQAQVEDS
Text: The FLT3 FP assay utilizes the fluorescein-labeled phosphopeptide and the anti-phosphotyrosine antibody included in the Panvera Phospho-Tyrosine Kinase Kit (Green) supplied by Invitrogen. When FLT3 phosphorylates polyGlu4Tyr, the fluorescein-labeled phosphopeptide is displaced from the anti-phosphotyrosine antibody by the phosphorylated poly Glu4Tyr, thus decreasing the FP value. […] The kinase reaction is stopped with the addition of EDTA. The fluorescein-labeled phosphopeptide and the anti-phosphotyrosine antibody are added and incubated for 30 minutes at room temperature.
Data points are an average of triplicate samples. Inhibition and IC50 data analysis was done with GraphPad Prism using a non-linear regression fit with a multiparamater, sigmoidal dose-response (variable slope) equation.

In order of rising IC50:
1. C[C@@H]1CC(c2ccc(NC(=O)c3ncc(C#N)[nH]3)c(C3=CCCCC3)c2)C[C@H](C)N1 (stereo partly drawn) [Compound 51a, 5-Cyano-1H-imidazole-2-carboxylic acid [2-cyclohex-1-enyl-4-(cis-2,6-dimethyl-piperidin-4-yl)-phenyl]-amide bis trifluoroacetic acid salt]  2.3 nM
2. CC1CC=C(c2cc(C3CCNCC3)ccc2NC(=O)c2nc(C#N)c[nH]2)CC1 (centres unmarked) [Compound 17, 4-Cyano-1H-imidazole-2-carboxylic acid [2-(4-methyl-cyclohex-1-enyl)-4-piperidin-4-yl-phenyl]-amide trifluoroacetic acid salt]  13 nM
3. Cn1ccnc1CN1CCC(c2ccc(NC(=O)c3nc(C#N)c[nH]3)c(C3=CCCC3)c2)CC1 [Compound 23, 4-Cyano-1H-imidazole-2-carboxylic acid {2-cyclopent-1-enyl-4-[1-(1-methyl-1H-imidazol-2-ylmethyl)-piperidin-4-yl]-phenyl}-amide trifluoroacetic acid salt]  16 nM
4. N#Cc1c[nH]c(C(=O)Nc2ccc(C3CCNCC3)cc2C2=CCCCC2)c1 [Compound 13, 4-Cyano-1H-pyrrole-2-carboxylic acid (2-cyclohex-1-enyl-4-piperidin-4-yl-phenyl)-amide trifluoroacetic acid salt]  34 nM
5. CC(=O)N1CCC(c2ccc(NC(=O)c3nc(C#N)c[nH]3)c(C3=CCCCC3)c2)CC1 [Compound 16, 4-Cyano-1H-imidazole-2-carboxylic acid [4-(1-acetyl-piperidin-4-yl)-2-cyclohex-1-enyl-phenyl]-amide]  39 nM
6. CC(=O)N1CCC(c2ccc(NC(=O)c3nc(C#N)c[nH]3)c(C3=CCCNC3)c2)CC1 [Compound 46, 4-Cyano-1H-imidazole-2-carboxylic acid [4-(1-acetyl-piperidin-4-yl)-2-(1,2,5,6-tetrahydro-pyridin-3-yl)-phenyl]-amide trifluoroacetic acid salt]  39 nM
7. N#Cc1c[nH]c(C(=O)Nc2ccc(C3CCN(CCO)CC3)cc2C2=CCCCC2)n1 [Compound 26, 4-Cyano-1H-imidazole-2-carboxylic acid {2-cyclohex-1-enyl-4-[1-(2-hydroxy-ethyl)-piperidin-4-yl]-phenyl}-amide trifluoroacetic acid salt]  53 nM
8. N#Cc1c[nH]c(C(=O)Nc2ccc(C3CCN(C(CO)CO)CC3)cc2C2=CCCCC2)n1 [Compound 6, 4-Cyano-1H-imidazole-2-carboxylic acid {2-cyclohex-1-enyl-4-[1-(2-hydroxy-1-hydroxymethyl-ethyl)-piperidin-4-yl]-phenyl}-amide trifluoroacetic acid salt]  82 nM
9. Cc1ccccc1-c1cc(N2CCN(C)CC2)ccc1NC(=O)c1ccc(C#N)o1 [Compound 9, 5-Cyano-furan-2-carboxylic acid [2′-methyl-5-(4-methyl-piperazin-1-yl)-biphenyl-2-yl]-amide]  97 nM
10. N#Cc1c[nH]c(C(=O)Nc2ccc(C3CCS(=O)(=O)CC3)cc2C2=CCCCC2)n1 [Compound 35, 4-Cyano-1H-imidazole-2-carboxylic acid [2-cyclohex-1-enyl-4-(1,1-dioxo-hexahydro-1λ^6-thiopyran-4-yl)-phenyl]-amide]  120 nM
11. CS(=O)(=O)CC(=O)N1CCC(c2ccc(NC(=O)c3nc(C#N)c[nH]3)c(C3=CCCCC3)c2)CC1 [Compound 20, 4-Cyano-1H-imidazole-2-carboxylic acid {2-cyclohex-1-enyl-4-[1-(2-methanesulfonyl-acetyl)-piperidin-4-yl]-phenyl}-amide]  130 nM
12. CC1(C)CC=C(c2nc(C3CCN(CCS(C)(=O)=O)CC3)ccc2NC(=O)c2nc(C#N)c[nH]2)CC1 [Compound 56, 4-Cyano-1H-imidazole-2-carboxylic acid [6-(4,4-dimethyl-cyclohex-1-enyl)-1′-(2-methanesulfonyl-ethyl)-1′,2′,3′,4′,5′,6′-hexhydro-[2,4]bipyridinyl-5-yl]-amide trifluoroacetic acid salt]  140 nM
13. CN1CCN(c2ccc(NC(=O)c3ccc(C#N)o3)c(C3=CCCCC3)c2)CC1 [Compound 11, 5-Cyano-furan-2-carboxylic acid [2-cyclohex-1-enyl-4-(4-methyl-piperazin-1-yl)-phenyl]-amide]  260 nM
14. N#Cc1c[nH]c(C(=O)Nc2ccc(C3CCN(C(N)=O)CC3)cc2C2=CCCCC2)n1 [Compound 24, 4-{4-[(4-Cyano-1H-imidazole-2-carbonyl)-amino]-3-cyclohex-1-enyl-phenyl}-piperidine-1-carboxylic acid amide]  370 nM
15. CN1CCN(c2ccc(NC(=O)c3ccc(C#N)o3)c(C3=CCOCC3)c2)CC1 [Compound 12]  1240 nM
16. N#Cc1c[nH]c(C(=O)Nc2ccc(C3CCNCC3)cc2C2=CCS(=O)(=O)CC2)n1 [Compound 36, 4-Cyano-1H-imidazole-2-carboxylic acid [2-(1,1-dioxo-1,2,3,6-tetrahydro-1λ6-thiopyran-4-yl)-4-piperidin-4-yl-phenyl]-amide trifluoroacetic acid salt]  9100 nM

molecular target: T2, wild-type FLT3 phosphorylation in Baf3 FLT3 cells (Homo sapiens, UniProt P36888); experiment: Cell-based FLT3 receptor ELISA; details: uncertainty ±20%
T2 construct: host or cells: Baf3 (murine B cell lymphoma line)
T2 sequence (P36888 27-993): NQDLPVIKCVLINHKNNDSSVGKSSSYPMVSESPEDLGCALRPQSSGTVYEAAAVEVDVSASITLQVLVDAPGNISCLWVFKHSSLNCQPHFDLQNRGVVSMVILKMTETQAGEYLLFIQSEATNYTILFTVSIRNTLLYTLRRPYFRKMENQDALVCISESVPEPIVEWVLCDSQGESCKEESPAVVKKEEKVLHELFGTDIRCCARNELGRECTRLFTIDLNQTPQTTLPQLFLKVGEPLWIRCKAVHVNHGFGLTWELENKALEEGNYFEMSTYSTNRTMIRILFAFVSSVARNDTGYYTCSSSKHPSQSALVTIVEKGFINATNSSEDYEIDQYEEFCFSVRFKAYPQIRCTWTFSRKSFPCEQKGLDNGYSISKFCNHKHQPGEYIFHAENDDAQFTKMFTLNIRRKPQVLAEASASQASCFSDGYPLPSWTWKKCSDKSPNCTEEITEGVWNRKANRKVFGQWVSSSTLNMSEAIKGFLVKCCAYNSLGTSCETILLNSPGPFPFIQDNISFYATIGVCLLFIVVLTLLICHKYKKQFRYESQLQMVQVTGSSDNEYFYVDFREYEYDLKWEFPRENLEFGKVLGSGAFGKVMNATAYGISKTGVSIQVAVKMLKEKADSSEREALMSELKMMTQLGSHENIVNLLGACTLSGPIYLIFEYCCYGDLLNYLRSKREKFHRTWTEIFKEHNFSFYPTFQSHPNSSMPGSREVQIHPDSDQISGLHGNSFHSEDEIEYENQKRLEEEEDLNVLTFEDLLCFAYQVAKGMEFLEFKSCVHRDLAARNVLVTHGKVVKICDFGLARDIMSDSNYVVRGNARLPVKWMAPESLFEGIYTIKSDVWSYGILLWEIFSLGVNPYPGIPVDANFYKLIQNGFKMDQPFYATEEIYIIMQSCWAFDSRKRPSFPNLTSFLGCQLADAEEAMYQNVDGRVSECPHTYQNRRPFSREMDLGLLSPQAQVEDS
Text: Data points are an average of triplicate samples. […] Leukemia.

`CN1CCN(c2ccc(NC(=O)c3ccc(C#N)o3)c(C3=CCCCC3)c2)CC1` [Compound 11, 5-Cyano-furan-2-carboxylic acid [2-cyclohex-1-enyl-4-(4-methyl-piperazin-1-yl)-phenyl]-amide] gave an IC50 of 1300 nM.
